Experimental data: ChEMBL document CHEMBL1151057, “Difunctional enols of N-protected amino acids as low molecular weight and novel inhibitors of HIV-1 protease” (Bioorg Med Chem Lett, 1993)

The compounds below were run against T1, Human immunodeficiency virus type 1 protease (Human immunodeficiency virus 1, UniProt Q72874) (assay: Inhibitory concentration required to inhibit HIV-1 protease was determined). Conditions: not given; call rule not given here.

IC50	Compound
58 µM	CC(C)(C)OC(=O)NCC(=O)N[C@@H](Cc1ccccc1)/C(O)=C(\C#N)c1ccc([N+](=O)[O-])cc1

Each compound was assayed against T1, Human immunodeficiency virus type 1 protease (assay: Inhibitory constant against HIV-1 protease at 400 uM; NI means no inhibition). Conditions: not given.

Compound	Ki
CC(=O)NC(CC(C)C)C(=O)N[C@@H](Cc1ccccc1)C(O)=C(C#N)C#N (stereo partly drawn)	Not Active

Each compound was assayed against T1, Human immunodeficiency virus type 1 protease (assay: Inhibitory constant against HIV-1 protease was determined). Conditions: not given.

Ki	Compound
9.5 µM	CC(=O)NC(CC(C)C)C(=O)N[C@@H](Cc1ccccc1)/C(O)=C(\C#N)c1ccc([N+](=O)[O-])cc1 (stereo partly drawn)
168 µM	CC(=O)NC(CC(C)C)C(=O)N[C@@H](Cc1ccccc1)/C(O)=C(\C#N)c1ccncc1 (stereo partly drawn)
206 µM	CCOP(=O)(OCC)/C(C#N)=C(\O)[C@H](Cc1ccccc1)NC(=O)C(CC(C)C)NC(C)=O (stereo partly drawn)
152 µM	CC(=O)NC(CC(C)C)C(=O)N[C@@H](Cc1ccccc1)/C(O)=C(\C#N)S(=O)(=O)c1ccccc1 (stereo partly drawn)
209 µM	CO/C(O)=C(/C#N)C(=O)[C@H](Cc1ccccc1)NC(=O)C(CC(C)C)NC(C)=O (stereo partly drawn)

What follows are compounds tested against T1, Human immunodeficiency virus type 1 protease (assay: Apparent inhibitory constant against HIV-1 protease was determined). Conditions: read-out: Ki app.

Ki	Compound
0.48 µM	CC(C)(C)OC(=O)N[C@@H](Cc1ccccc1)/C(O)=C(\C#N)c1c(F)c(F)c(F)c(F)c1F
9 µM	CC(=O)NC(CC(C)C)C(=O)N[C@@H](Cc1ccccc1)/C(O)=C(\C#N)c1ccc([N+](=O)[O-])cc1 (stereo partly drawn)
30 µM	N#C/C(=C(/O)[C@H](Cc1ccccc1)NC(=O)OCc1ccccc1)c1ccc([N+](=O)[O-])cc1
689 µM	CC(C)(C)OC(=O)N[C@@H](C(=O)C(N)Cc1ccccc1)/C(O)=C/c1ccc([N+](=O)[O-])cc1 (stereo partly drawn)
54 µM	CC(C)(C)OC(=O)N[C@@H](C(=O)[C@@H](N)Cc1ccccc1)/C(O)=C(\C#N)c1ccc([N+](=O)[O-])cc1
15 µM	CC(C)(C)OC(=O)N[C@@H](C(=O)C(N)CC1CCCCC1)/C(O)=C(\C#N)c1ccc([N+](=O)[O-])cc1 (stereo partly drawn)
30 µM	CC(C)(C)OC(=O)N[C@@H](C(=O)C(N)c1ccccc1)/C(O)=C(\C#N)c1ccc([N+](=O)[O-])cc1 (stereo partly drawn)
18 µM	CC(C)(C)OC(=O)N[C@@H](C(=O)C(N)Cc1c[nH]c2ccccc12)/C(O)=C(\C#N)c1ccc([N+](=O)[O-])cc1 (stereo partly drawn)
60 µM	CC(C)(C)OC(=O)N[C@@H](C(=O)C(N)Cc1ccc([N+](=O)[O-])cc1)/C(O)=C(\C#N)c1ccc([N+](=O)[O-])cc1 (stereo partly drawn)
38 µM	CC(C)(C)OC(=O)N[C@@H](C(=O)C(N)Cc1ccc2ccccc2c1)/C(O)=C(\C#N)c1ccc([N+](=O)[O-])cc1 (stereo partly drawn)
2.3 µM	CC(C)(C)OC(=O)N[C@@H](Cc1ccccc1)/C(O)=C(\C#N)c1ccc([N+](=O)[O-])cc1
7 µM	CC(=O)NC(CC(C)C)C(=O)N[C@@H](Cc1ccccc1)/C(O)=C(\C#N)c1c(F)c(F)c(F)c(F)c1F (stereo partly drawn)
78 µM	N#C/C(=C(/O)[C@H](Cc1ccccc1)NC(=O)OCC1c2ccccc2-c2ccccc21)c1ccc([N+](=O)[O-])cc1
181 µM	CC(C)(C)OC(=O)N[C@@H](C(=O)C1CCCN1)/C(O)=C(\C#N)c1ccc([N+](=O)[O-])cc1 (stereo partly drawn)
320 µM	CC(C)(C)OC(=O)N[C@H](C(=O)/C(C#N)=C(\O)c1ccccc1)C(=O)C(N)Cc1ccccc1 (stereo partly drawn)
12 µM	CC(C)(C)OC(=O)N[C@@H](C(=O)C(N)Cc1ccc(OCc2ccccc2)cc1)/C(O)=C(\C#N)c1ccc([N+](=O)[O-])cc1 (stereo partly drawn)
